What all share (experiment): NCI tumour cell line growth inhibition, 48 h
Test [1] deals with IGROV1 ovarian.
The subject of test [2] is OVCAR-5 ovarian.
The test system of test [3] is SR leukemia.
The subject of test [4] is A498 renal.
In test [5] the test system is KM12 colon.
Test [6] has as its system DU-145 prostate.
For test [7], the system named is SK-MEL-28 melanoma.
Test [8] deals with HCT-116 colon.
In test [9] the test system is SNB-19 CNS.
Test [10] relates to PC-3 prostate.

Molecules are shown by their SMILES.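 Step 1: Grow cells in 96-well plates. Step 2: Expose to compound for 48 hours at 5 concentrations. Step 3: Interpolate endpoints linearly; if unreached, use highest concentration. Definition used: TGI = concentration required for complete inhibition of growth.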

The record followed here is PubChem BioAssay (NCI).

Turning to `N/N=C(\N)SCc1ccc(N=C=S)cc1`, the TGI in test [1], in test [2], in test [3], in [4], in [5] and in test [6] was > 100 µM in each case. Also, the TGI in test [7], in test [8], in test [9] and in test [10] was > 100 µM throughout.
`Nc1c(/C=C/c2cc3cc(C4=NCCN4)ccc3o2)[nH]c2cc(C3=NCCN3)ccc12`: the TGI in test [1], in test [2], in [3], in [4], in [5] and in test [6] was > 100 µM each time. In addition, the TGI was 97.4 µM in test [7], > 100 µM in [8], > 100 µM in test [9] and > 100 µM in test [10].
With `O=C1Cc2c(-c3ccccc3)cc(-c3ccc(Cl)cc3)nc2-c2ccccc2N1`, the TGI was 35.9 µM in [1]; > 83.7 µM in test [2]; > 100 µM in [3]; 3.67 µM in test [4]; 96.1 µM in test [5]; > 90.2 µM in test [6]. The TGI in [7] is > 31.8 µM; in test [8], 11.9 µM; in [9] it was 6.35 µM; in test [10], > 57.7 µM.
Take `CC(=O)OC/C=C/Cn1nc(Br)c(=O)[nH]c1=O`: the TGI in test [1], in [2], in test [3], in test [4], in test [5] and in test [6] was > 100 µM in each case. The TGI in [7], in [8], in [9] and in [10] was > 100 µM each time.
As for `O=C(CCc1ccccc1)NCCc1ccc(O)c(O)c1`, the TGI in test [1] is > 100 µM; in [2], > 31.6 µM; in [3], > 77.3 µM; in test [4] it was > 100 µM; in test [5], > 94.4 µM; in [6] it was > 100 µM. Also, the TGI in test [7] is > 100 µM; in test [8] it was > 66.7 µM; in test [9] it was > 100 µM; in test [10] it was > 61.2 µM.
Turning to `CC(=O)OC1C(C)OC(OC2C[C@](O)(C(C)=O)Cc3c(O)c4c(c(O)c32)C(=O)c2ccccc2C4=O)C(F)C1OC(C)=O` (stereo not given in full), the TGI in [1] was 9.34 µM; in [2] it was 5.45 µM; in [3], 0.887 µM; in [4], 2.87 µM; in test [5], > 100 µM; in test [6] it was 4.59 µM. Moreover, the TGI was > 31.3 µM in test [7], 2.84 µM in test [8], 4.99 µM in test [9] and 22.4 µM in test [10].
Consider `COc1cc(CC2C(=O)OCC2Cc2ccc(OC)c(OC)c2)ccc1O` (stereo not given), for which the TGI in test [1], in [2], in [3], in test [4], in test [5] and in test [6] was > 100 µM in each case. In addition, the TGI in test [7], in test [8], in [9] and in [10] was > 100 µM each time.
`N#Cc1c2c(c(Nc3ccc(Cl)cc3)n3c1nc1ccccc13)CCCC2`: the TGI in test [1], in test [2], in test [3], in test [4], in test [5] and in test [6] was > 100 µM each time. Moreover, the TGI was > 100 µM in test [7], > 100 µM in test [8], > 64.2 µM in test [9] and > 100 µM in test [10].
As to `C[C@@H](c1ccccc1)N(CC#N)[C@H]1CCC[C@]1(O)/C=C/c1ccc2c(c1)OCO2`, the TGI in test [1] was > 25 µM; in test [2], > 25 µM; in test [3] it was > 25 µM; in test [4] it was 6.98 µM; in [5], > 25 µM; in test [6], > 25 µM. Also, the TGI in [7], in test [8], in test [9] and in [10] was > 25 µM each time.
For the molecule `COc1ccc(-c2cc(=O)c3cc(OC)c(OC)cc3[nH]2)cc1OC`, the TGI in [1], in test [2], in test [3], in test [4], in test [5] and in test [6] was > 100 µM in each case. Moreover, the TGI in [7], in test [8], in test [9] and in [10] was > 100 µM throughout.
`CO[C@@H](c1ccccc1)[C@H](O)[C@@](O)(c1ccccc1)P(=O)(OC)OC`: the TGI in [1], in test [2], in [3], in [4], in test [5] and in test [6] was > 100 µM each time. Also, the TGI in test [7], in test [8], in [9] and in [10] was > 100 µM each time.
As to `CN(C)c1ccc(/C=C2\CCCCCC2=O)cc1`, the TGI in test [1], in [2], in test [3], in test [4], in [5] and in test [6] was > 100 µM each time. The TGI in test [7], in [8], in test [9] and in test [10] was > 100 µM each time.
On to `Cn1c(=O)c2c(n(C)c1=O)n1c(=O)c3ccccc3nc1n2C`, for which the TGI in [1], in [2], in test [3], in test [4], in [5] and in test [6] was > 100 µM each time. Also, the TGI in test [7], in test [8], in test [9] and in test [10] was > 100 µM throughout.
With `CC(C)(C)OC(=O)NCCCCC1NC(=O)[C@@H]2Cc3c([nH]c4ccccc34)C(c3ccccc3)N2C1=O` (stereo not given in full), the TGI in test [1] was > 100 µM; in test [2], > 100 µM; in test [3] it was 62.8 µM; in test [4] it was > 100 µM; in test [5], > 100 µM; in test [6] it was > 100 µM. In addition, the TGI in test [7], in test [8], in test [9] and in test [10] was > 100 µM each time.
